Values of other authors as cited in patent publication US20230270851A1, “METHODS FOR THE TREATMENT OF IDIOPATHIC ORBITAL INFLAMMATION AND RELATED CONDITIONS” (HORIZON THERAPEUTICS IRELAND DAC, priority 2020, published 2023).

Experiments:
ALK = ALK (Homo sapiens, UniProt Q9UM73); conditions: cited from earlier work
IGF-1R = IGF-1R (Homo sapiens, UniProt P08069); conditions: A-928605: purified enzyme; INSM-18: receptor activation; cited from earlier work
neuroblastoma = conditions: cited from earlier work
[1] = tested on: susceptible tumor cell populations; conditions: cited from earlier work
[2] = target: c-erbB2/HER2/neu receptor (Homo sapiens, UniProt P04626); conditions: cited from earlier work
Chain of c-erbB2/HER2/neu receptor (P04626 23-1255): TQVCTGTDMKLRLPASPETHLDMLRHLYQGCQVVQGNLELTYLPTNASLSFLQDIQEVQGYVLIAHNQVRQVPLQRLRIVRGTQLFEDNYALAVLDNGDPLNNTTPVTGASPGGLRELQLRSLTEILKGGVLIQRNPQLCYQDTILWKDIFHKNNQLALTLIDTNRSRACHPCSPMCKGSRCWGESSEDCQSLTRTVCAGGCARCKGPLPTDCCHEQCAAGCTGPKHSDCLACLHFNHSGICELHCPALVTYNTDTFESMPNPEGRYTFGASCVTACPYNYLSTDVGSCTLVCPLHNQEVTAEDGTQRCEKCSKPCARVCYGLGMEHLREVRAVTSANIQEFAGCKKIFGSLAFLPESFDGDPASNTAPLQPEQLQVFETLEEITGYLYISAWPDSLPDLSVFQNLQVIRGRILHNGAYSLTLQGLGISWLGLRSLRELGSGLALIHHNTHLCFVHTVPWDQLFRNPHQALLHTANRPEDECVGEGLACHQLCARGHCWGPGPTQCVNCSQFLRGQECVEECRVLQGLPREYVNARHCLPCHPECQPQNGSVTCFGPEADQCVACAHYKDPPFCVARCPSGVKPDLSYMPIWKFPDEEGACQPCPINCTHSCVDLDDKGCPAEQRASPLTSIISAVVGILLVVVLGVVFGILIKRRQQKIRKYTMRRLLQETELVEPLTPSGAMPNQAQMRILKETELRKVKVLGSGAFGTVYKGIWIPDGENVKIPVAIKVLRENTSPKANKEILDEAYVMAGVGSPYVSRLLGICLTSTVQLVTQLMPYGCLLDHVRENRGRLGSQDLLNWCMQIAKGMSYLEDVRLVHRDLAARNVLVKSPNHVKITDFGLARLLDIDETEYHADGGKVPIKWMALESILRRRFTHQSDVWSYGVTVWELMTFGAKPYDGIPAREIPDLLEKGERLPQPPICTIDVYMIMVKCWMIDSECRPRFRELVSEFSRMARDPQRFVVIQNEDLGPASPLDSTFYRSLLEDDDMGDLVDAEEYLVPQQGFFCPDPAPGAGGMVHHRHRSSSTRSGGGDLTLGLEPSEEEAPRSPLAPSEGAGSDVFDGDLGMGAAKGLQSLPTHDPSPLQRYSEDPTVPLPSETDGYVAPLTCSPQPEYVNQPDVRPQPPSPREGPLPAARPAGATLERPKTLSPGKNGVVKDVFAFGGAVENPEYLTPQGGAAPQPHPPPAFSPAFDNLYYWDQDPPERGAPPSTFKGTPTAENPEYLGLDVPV

[3] = tested on: IGF-1 R-overexpressing tumor cells; conditions: cited from earlier work
IGF-IR = IGF-IR (Homo sapiens, UniProt P08069); conditions: cited from earlier work
Chain of IGF-IR (P08069 31-1367): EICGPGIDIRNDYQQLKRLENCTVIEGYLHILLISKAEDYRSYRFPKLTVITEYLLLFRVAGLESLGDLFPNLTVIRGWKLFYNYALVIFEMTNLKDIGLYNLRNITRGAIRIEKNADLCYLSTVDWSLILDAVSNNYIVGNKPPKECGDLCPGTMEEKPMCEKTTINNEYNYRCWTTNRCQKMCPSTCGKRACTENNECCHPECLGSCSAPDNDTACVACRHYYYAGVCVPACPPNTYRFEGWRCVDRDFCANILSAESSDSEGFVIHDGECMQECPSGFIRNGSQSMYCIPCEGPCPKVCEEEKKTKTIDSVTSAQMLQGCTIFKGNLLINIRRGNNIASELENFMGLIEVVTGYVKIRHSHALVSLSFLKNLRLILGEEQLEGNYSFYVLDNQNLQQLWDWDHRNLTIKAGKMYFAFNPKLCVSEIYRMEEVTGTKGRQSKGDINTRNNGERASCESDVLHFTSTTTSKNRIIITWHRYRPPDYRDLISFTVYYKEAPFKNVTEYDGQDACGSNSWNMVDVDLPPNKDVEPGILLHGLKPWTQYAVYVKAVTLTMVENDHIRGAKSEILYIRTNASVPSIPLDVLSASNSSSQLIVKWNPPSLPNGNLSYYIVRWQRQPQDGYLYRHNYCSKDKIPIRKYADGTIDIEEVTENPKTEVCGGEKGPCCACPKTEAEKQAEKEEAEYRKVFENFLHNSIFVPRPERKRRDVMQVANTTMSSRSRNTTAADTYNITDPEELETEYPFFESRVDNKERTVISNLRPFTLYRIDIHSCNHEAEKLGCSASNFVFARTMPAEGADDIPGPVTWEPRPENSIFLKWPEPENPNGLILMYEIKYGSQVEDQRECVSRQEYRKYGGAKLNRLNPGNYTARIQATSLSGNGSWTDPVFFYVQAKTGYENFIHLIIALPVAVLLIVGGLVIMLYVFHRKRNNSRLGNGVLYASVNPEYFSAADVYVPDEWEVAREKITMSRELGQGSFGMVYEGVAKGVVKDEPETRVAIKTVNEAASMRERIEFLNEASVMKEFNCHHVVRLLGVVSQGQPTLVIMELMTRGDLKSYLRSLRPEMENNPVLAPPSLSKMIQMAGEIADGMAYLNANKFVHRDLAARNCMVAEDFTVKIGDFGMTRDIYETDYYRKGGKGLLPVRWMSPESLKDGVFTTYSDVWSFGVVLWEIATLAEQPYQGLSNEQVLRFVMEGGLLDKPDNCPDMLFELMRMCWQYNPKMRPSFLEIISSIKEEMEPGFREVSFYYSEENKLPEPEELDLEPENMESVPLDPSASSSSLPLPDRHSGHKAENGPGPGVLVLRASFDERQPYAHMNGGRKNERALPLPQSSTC

[4] = cited from earlier work
tumors = conditions: in vivo; cited from earlier work

Chain of IGF-1R (P08069 31-1367): as above
Chain of ALK (Q9UM73 19-1620, species assumed): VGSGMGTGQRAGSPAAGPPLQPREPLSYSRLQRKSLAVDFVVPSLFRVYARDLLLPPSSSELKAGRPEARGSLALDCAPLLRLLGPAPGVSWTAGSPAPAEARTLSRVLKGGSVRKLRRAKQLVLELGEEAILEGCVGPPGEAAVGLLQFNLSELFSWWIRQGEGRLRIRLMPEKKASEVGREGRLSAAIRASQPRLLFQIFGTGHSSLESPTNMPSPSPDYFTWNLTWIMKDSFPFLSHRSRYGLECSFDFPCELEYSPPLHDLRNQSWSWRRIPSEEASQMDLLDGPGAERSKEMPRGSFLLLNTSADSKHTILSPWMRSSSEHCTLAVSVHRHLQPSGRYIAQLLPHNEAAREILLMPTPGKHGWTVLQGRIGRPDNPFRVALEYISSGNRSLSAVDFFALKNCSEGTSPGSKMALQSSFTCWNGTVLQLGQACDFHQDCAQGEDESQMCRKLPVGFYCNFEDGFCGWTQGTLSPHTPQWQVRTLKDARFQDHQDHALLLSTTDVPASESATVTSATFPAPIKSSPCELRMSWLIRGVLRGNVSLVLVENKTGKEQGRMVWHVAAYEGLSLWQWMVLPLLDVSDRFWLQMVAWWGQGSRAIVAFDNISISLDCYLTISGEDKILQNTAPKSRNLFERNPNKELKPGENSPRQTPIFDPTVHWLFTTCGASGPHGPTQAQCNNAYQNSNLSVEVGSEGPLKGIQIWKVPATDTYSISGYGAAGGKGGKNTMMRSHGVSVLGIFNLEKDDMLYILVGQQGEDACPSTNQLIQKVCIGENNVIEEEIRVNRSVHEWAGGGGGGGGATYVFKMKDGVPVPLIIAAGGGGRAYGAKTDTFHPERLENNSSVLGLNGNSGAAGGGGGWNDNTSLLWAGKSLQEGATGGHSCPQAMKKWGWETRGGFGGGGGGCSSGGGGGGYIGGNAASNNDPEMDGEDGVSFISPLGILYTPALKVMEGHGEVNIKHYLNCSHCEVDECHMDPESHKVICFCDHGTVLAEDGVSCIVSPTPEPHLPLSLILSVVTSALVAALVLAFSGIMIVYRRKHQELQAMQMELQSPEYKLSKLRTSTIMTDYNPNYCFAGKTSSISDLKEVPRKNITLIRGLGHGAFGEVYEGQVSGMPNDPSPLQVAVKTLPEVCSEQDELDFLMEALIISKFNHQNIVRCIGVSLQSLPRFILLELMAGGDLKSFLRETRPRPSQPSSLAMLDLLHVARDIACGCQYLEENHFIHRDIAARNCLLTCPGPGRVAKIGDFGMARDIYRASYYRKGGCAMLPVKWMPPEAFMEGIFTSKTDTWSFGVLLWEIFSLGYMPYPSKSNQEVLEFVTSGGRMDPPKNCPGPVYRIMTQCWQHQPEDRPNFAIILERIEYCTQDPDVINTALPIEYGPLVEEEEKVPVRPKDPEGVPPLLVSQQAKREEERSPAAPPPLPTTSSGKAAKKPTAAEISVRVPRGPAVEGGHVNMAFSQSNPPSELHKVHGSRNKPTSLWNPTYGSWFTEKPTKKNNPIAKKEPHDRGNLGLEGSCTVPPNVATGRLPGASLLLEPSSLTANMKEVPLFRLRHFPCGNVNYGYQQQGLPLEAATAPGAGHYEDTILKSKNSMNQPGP

For `COc1cc(N2CCC(N)CC2)ccc1Nc1ncc(Cl)c(-c2c[nH]c3ccccc23)n1` [AZD3463], the “inhibition of ALK” value (ALK) is listed as “potent”, the “inhibition of IGF-1R” value (IGF-1R) is listed as “potent” and the apoptosis (neuroblastoma; neuroblastoma) is listed as “inducing apoptosis”. The neuroblastoma growth (neuroblastoma; overcoming crizotinib resistance) was “inhibition of neuroblastoma growth”.
In the case of `C[C@H](Cc1ccc(O)c(O)c1)[C@@H](C)Cc1ccc(O)c(O)c1` [INSM-18, nordihydroguaiaretic acid], the “inhibition of IGF-1R” value (IGF-1R) is listed as “directly inhibits activation”, the “proliferation of susceptible tumor cell populations” value [1] is listed as “decreased proliferation” and the “inhibition of activation of the c-erbB2/HER2/neu receptor” value [2] is listed as “directly inhibits activation”.
In the case of `CCOC(=O)N1CCC(Nc2cc(Cl)cc3c(S(=O)(=O)N4CCO[C@H](COc5ccccc5)C4)c(C(N)=O)[nH]c23)CC1` [PL-225B], the “inhibition of IGF-1R” value (IGF-1R) is given as “selectively inhibits”, the tumor cell apoptosis [3] is given as “induction of tumor cell apoptosis” and the tumor cell proliferation [3] is given as “inhibition of tumor cell proliferation”.
In the case of `Nc1ncnc2c1c(-c1ccc3[nH]c(Cc4ccccc4Cl)nc3c1)nn2[C@H]1CC[C@H](N2CCOCC2)CC1` [Example A-928605], the “inhibition of IGF-1R” value (IGF-1R) is given as “potent inhibitor” and the “inhibition of intracellular IGF-IR phosphorylation” value (IGF-IR) is given as “potent inhibitor”.
For `COCCN1CCN(CCn2ccc(Nc3ncc4c(n3)[C@@H](C)Cc3nn(C)c(-c5ccccc5)c3-4)n2)CC1` [BI885578], the in vivo half-life [4] is given as “short”, the intestinal absorption ([4]; in vivo) is given as “rapid” and the metabolic clearance ([4]; in vivo) is given as “rapid”. The apoptosis in tumors (tumors) was “induction of apoptosis” and the “cell proliferation in tumors” value (tumors) was “inhibition of cell proliferation”.
